Experimental data as given in ChEMBL document CHEMBL1127940, “Analogs of the marine natural product scalaradial lacking the ,-unsaturated aldehyde: effects on human synovial fluid phospholipase A2 and macrophage lipid mediator production” (Bioorg Med Chem Lett, 1994).
pIC50: −log10 of the molar value.

Columns and labels:
[1] = In vitro inhibition of PGE-2 production in murine resident peritoneal macrophage; type: functional; settings: Mus musculus
[2] = species on record: Homo sapiens; test: In vitro inhibition of platelet activating factor (PAF) production in human PMN at 50 uM; not active at 50 uM; type: functional
[3] = molecular target: T1, Phospholipase A2, membrane associated (Homo sapiens, UniProt P14555); test: In vitro inhibition tested against Phospholipase A2 (HSF-PLA2) by monitoring hydrolysis of [3H]- arachidonic acid labeled Escherichia coli at 50 uM
T1 sequence (P14555 whole entry): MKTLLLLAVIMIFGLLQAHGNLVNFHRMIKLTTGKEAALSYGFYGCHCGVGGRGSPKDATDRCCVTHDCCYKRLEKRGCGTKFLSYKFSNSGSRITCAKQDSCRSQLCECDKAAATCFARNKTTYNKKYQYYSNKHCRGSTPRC

[4] = species on record: Homo sapiens; test: In vitro inhibition of LTB4 production in human PMN at 50 uM; not active at 50 uM; type: functional
[5] = molecular target: T2, Phospholipase A2, membrane associated (Homo sapiens) (UniProt P14555); test: In vitro percent inhibition against Phospholipase A2 (HSF-PLA2) by monitoring hydrolysis of [3H]- arachidonic acid labeled Escherichia coli at 50 uM
T2 sequence (whole entry): T1 sequence (P14555 whole entry)

[6] = species on record: Homo sapiens; test: In vitro percent inhibition of platelet activating factor (PAF) production in human PMN at 10 uM; type: functional
[7] = molecular target: T1, Phospholipase A2, membrane associated; test: In vitro inhibitory activity against human synovial fluid phospholipase A2 (HSF-PLA2) by monitoring hydrolysis of [3H]arachidonic acid labeled Escherichia coli
[8] = species on record: Homo sapiens; test: In vitro inhibition of platelet activating factor (PAF) production in human PMN; type: functional
[9] = species on record: Homo sapiens; test: In vitro inhibition of LTB4 production in human PMN; type: functional

| pIC50 [1] | IC50 [2] | pIC50 [3] | IC50 [4] | inhibition [5] | pIC50 [7] | pIC50 [8] | pIC50 [9] | SMILES | inhibition at 10 µM [6] |
| --- | --- | --- | --- | --- | --- | --- | --- | --- | --- |
| 6.52 | Not Active | < 4.30 | Not Active | 21% | – | – | – | CC1(C)CCC[C@@]2(C)C1CC[C@]1(C)C2C[C@H](O)[C@@]2(C)C1CC=C(CO)[C@@H]2CO (some centres not stated) | – |
| 6.70 | – | – | – | – | 5.32 | – | – | CC(=O)O[C@H]1CC2[C@@]3(C)CCCC(C)(C)C3CC[C@@]2(C)C2CC=C(C(=O)O)[C@H](C(=O)O)[C@]21C (some centres not stated) | 60% |
| 7.40 | – | – | – | – | 7.82 | 6.00 | 6.00 | CC(=O)O[C@H]1C[C@@H]2[C@@]3(C)CCCC(C)(C)[C@@H]3CC[C@@]2(C)[C@@H]2CC=C(C=O)[C@H](C=O)[C@@]12C [SCALARADIAL] | – |
